Measurements taken from US11140903B2, “Fungicidal compositions and methods” (Bayer CropScience LP, priority 2010, dated 2021).

Assays:
[1] = tested on: soybean plants; assay: Soybean seed treatment: plant vigor, count density and yield; type: in vivo, Glycine max (L.) Merr.
Description: (§1) Soybean seeds (Glycine max (L.) Merr., an indeterminate line) were treated with Trilex® 2000 (7.12% (w/v) trifloxystrobin, 5.69% (w/v) metalaxyl), Gaucho® 600 FS (48.7%, (w/v) imidacloprid), Votivo® 240 FS (21.5%, (w/v) Bacillus firmus strain 1-1582), and fluopyram (41.5%, (w/v)) in the amounts and combinations shown in TABLE 1.
(§2) Seed growth and resistance to SDS were evaluated. Data on the incidence and severity of disease, plant vigor, plant count, plant density, defoliation, and yield were collected. Identification of SDS was based on the visual symptoms described in “Compendium of Soybean Diseases” (Glen Lee Hartman, J. B. Sinclair, and John Clark Rupe, eds. Am. Phytopathological Soc. 1999).
Vigor ratings, based on visual assessments of plant health, were collected according to the system shown in TABLE 2, with 1 being a healthy and vigorous plant and 6 being extremely low vigor.
The error bars of FIG. 3 represent standard error, and the values within each bar are the value of that bar along the y-axis.
Plant density was calculated as the change in density versus controls. […] The values above or below each bar are the value of that bar along the y-axis.
To determine yield, soybeans were harvested from each plot, weighed, and their moisture content determined. The data from each treatment were normalized to the standard weight of 60 pounds of soybeans at 13% moisture. […] The values above or below each bar are the value of that bar along the y-axis.

[2] = tested on: Anthracnose; assay: Fluopyram efficacy by fungus (Table 3)
[3] = tested on: sudden death syndrome (SDS); assay: Soybean seed treatment: resistance to SDS (incidence, severity, defoliation); type: in vivo, Glycine max (L.) Merr.
Description: as §1, §2
Disease incidence was defined as the percentage of plants in the plot with visible symptoms of SDS. […] The values above each bar in FIG. 1 are the value of that bar along they-axis.
Symptoms of disease severity were determined as percent severity, on a scale of 0% to 100%, by examining the leaf area on the tops of plants and determining the area affected by SDS, expressed as a percentage of the total area. […] The error bars of FIG. 2 represent standard error, and the values above each bar are the value of that bar along the y-axis.
Defoliation was defined as the percentage of plants showing evidence of defoliation in a given plot (i.e., on a scale of 0% to 100%). […] The values above each bar are the value of that bar along the y-axis.

[4] = tested on: Powdery mildews; conditions: Fungus: Powdery mildews
[5] = tested on: Fusarium; assay: Fluopyram efficacy by fungus (Table 3)
From the text: (§3) Without wishing to be bound by theory, the applicant hypothesizes that the decreased incidence and severity of SDS observed in plants from seed treated with fluopyram contributes to improved vigor and reduced defoliation, which in turn contributes to improved yield.

[6] = tested on: Colletotrichum; assay: Fluopyram efficacy by fungus (Table 3)
From the text: as §3

[7] = tested on: Rusts; assay: Fluopyram efficacy by fungus (Table 3)
From the text: as §3

[8] = tested on: Botrytis; assay: Fluopyram efficacy by fungus (Table 3)
[9] = tested on: Didymella; conditions: Fungus: Didymella
[10] = tested on: Cylindrocladium; conditions: Fungus: Cylindrocladium
[11] = tested on: Mycosphaerella; assay: Fluopyram efficacy by fungus (Table 3)
[12] = tested on: Venturia; assay: Fluopyram efficacy by fungus (Table 3)
[13] = tested on: Septoria; conditions: Fungus: Septoria
[14] = tested on: Alternaria; assay: Fluopyram efficacy by fungus (Table 3)
[15] = tested on: Sclerotinia; assay: Fluopyram efficacy by fungus (Table 3)
[16] = tested on: Sigatoka; assay: Fluopyram efficacy by fungus (Table 3)
[17] = tested on: Monilinia; assay: Fluopyram efficacy by fungus (Table 3)
[18] = tested on: Pyrenophora; assay: Fluopyram efficacy by fungus (Table 3)

## O=C(NCCc1ncc(C(F)(F)F)cc1Cl)c1ccccc1C(F)(F)F [Fluopyram, N-{2-[3-chloro-5-(trifluoromethyl)-2-pyridinyl]ethyl}-2-trifluoromethylbenzamide]
[1]; fluopyram alone, 0.17-0.67 mga/seed (columns 4-6), FIG. 4, versus control
  Count density (change in plant density versus control): decreased count density
[1]; soybean seed treatment, FIG. 3
  Vigor (visual vigor rating, scale 1-6 of Table 2): not adversely affected
[1]; soybean seed treatment, FIG. 6, normalized to 60 pounds at 13% moisture, versus seeds not treated with fluopyram
  Percent yield versus control: greater percent yield
[2]
  Fluopyram Efficacy: +
[3]; FIG. 1, compared between seeds with and without fluopyram
  Disease incidence (percentage of plants in the plot with visible symptoms of SDS): significantly reduced disease incidence
[3]; FIG. 2, compared between seeds with and without fluopyram
  Disease severity (percent leaf area affected by SDS): less disease severity
[3]; FIG. 5, compared between seeds with and without fluopyram
  Defoliation (percentage of plants showing evidence of defoliation in a plot): less defoliation
[4]
  Fluopyram Efficacy: ++++
[5]; Fungus: Fusarium
  Fluopyram Efficacy: +
[5]; relative to other fungi
  efficacy of fluopyram against Fusarium: low
[6]
  Fluopyram Efficacy: ++
[7]
  Fluopyram Efficacy: +
[8]
  Fluopyram Efficacy: ++++
[9]
  Fluopyram Efficacy: ++
[10]
  Fluopyram Efficacy: ++
[11]
  Fluopyram Efficacy: ++++
[12]
  Fluopyram Efficacy: +++
[13]
  Fluopyram Efficacy: ++
[14]
  Fluopyram Efficacy: +++
[15]
  Fluopyram Efficacy: ++++
[16]
  Fluopyram Efficacy: ++++
[17]
  Fluopyram Efficacy: ++++
[18]
  Fluopyram Efficacy: +++
